Values quoted from earlier work, collected in US12478643B2, “Compositions and methods for the prevention or treatment of rheumatoid arthritis” (Rhode Island Hospital, priority 2021, dated 2025).
pIC50: −log10 of the molar value. Where two headings read alike, the source gives them in different places.

Columns and labels:
[1] = biological target: T1, SHIP1 (Homo sapiens, UniProt Q92835)
T1 sequence (Q92835 1-1189): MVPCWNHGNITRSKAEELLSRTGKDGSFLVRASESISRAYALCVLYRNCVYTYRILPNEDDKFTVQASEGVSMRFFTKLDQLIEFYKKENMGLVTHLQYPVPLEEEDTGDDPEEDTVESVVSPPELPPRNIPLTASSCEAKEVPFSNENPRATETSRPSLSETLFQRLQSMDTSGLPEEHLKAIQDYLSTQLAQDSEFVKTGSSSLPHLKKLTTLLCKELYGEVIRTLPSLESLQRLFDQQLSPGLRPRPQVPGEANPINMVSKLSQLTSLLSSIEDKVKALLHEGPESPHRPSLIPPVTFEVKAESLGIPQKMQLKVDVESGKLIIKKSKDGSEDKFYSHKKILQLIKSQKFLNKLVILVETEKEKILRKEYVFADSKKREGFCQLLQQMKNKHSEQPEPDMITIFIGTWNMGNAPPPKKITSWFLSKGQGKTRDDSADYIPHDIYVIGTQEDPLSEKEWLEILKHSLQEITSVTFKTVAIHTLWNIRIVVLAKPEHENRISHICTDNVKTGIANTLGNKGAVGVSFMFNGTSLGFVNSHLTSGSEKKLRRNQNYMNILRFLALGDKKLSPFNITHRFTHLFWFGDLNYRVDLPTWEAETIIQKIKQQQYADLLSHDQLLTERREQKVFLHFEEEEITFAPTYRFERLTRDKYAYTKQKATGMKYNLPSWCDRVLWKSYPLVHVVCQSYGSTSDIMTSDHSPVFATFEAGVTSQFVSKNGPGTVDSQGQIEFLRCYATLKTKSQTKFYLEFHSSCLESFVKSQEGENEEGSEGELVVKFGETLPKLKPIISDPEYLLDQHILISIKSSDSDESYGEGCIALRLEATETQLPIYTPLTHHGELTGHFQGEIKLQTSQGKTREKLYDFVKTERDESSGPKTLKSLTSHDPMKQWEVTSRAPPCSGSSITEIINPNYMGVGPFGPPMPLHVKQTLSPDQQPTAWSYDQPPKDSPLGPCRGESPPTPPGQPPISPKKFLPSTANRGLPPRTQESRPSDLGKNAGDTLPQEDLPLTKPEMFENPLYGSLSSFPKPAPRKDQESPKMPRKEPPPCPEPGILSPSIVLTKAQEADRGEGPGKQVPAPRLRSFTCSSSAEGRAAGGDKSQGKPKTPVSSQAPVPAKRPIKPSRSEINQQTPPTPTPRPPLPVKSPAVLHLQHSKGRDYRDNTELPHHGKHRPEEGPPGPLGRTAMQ

[2] = biological target: T2, SHIP2 (Homo sapiens, UniProt O15357); settings: at 100 μM; cited from earlier work
T2 sequence (O15357 1-1258): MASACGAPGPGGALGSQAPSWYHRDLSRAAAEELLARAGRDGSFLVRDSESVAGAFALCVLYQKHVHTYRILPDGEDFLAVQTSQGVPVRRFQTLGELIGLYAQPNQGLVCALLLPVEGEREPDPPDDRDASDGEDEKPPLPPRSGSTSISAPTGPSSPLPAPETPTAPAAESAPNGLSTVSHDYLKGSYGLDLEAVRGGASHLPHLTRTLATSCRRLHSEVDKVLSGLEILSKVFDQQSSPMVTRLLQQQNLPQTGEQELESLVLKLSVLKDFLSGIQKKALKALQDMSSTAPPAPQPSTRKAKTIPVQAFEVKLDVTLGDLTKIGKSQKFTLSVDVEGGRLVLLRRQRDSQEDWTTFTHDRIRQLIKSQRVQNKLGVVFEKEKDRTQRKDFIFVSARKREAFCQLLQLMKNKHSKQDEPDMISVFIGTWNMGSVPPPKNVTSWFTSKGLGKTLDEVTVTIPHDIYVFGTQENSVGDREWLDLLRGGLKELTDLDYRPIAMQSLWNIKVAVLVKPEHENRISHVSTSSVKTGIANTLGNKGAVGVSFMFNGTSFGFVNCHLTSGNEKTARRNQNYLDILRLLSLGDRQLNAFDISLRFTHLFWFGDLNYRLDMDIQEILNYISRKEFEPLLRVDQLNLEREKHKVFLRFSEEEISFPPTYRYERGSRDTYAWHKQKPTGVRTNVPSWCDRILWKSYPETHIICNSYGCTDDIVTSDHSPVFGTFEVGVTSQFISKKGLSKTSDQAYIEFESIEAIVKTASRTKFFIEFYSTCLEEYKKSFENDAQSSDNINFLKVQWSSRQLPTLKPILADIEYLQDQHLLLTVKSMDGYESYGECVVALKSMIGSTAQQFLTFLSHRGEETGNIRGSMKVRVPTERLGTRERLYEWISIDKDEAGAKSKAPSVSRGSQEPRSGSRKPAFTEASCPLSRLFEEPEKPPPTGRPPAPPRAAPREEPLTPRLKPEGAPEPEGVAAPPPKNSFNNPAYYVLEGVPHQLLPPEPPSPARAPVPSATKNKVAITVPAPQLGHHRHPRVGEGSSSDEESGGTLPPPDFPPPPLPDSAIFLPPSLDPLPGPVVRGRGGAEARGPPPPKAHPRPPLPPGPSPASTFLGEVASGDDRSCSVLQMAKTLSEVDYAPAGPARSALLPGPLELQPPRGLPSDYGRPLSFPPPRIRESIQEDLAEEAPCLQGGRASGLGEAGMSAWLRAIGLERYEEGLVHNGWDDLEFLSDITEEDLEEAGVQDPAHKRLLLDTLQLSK

[3] = biological target: T1, SHIP1; settings: at 100 μM; cited from earlier work
[4] = Table 1; read-out: IC50 SHIP1; cited from earlier work

In the case of `C[C@H](NC(=O)c1sccc1OCc1ccc(Cl)cc1)c1ccccc1` [AS194490], the pIC50 [1, 4] is given as 4.89.

In the case of `O[C@H](c1cc(-c2ccccc2)nc2c1ccc1ccccc12)[C@@H]1CCCCN1` [Compound 26], the “inhibition of SHIP2” value [2] is listed as “approximately 60%” and the “inhibition of SHIP1 activity” value [3] is listed as “completely inhibited”.

For `O[C@H](c1cc(C2C3CC4CC(C3)CC2C4)nc2c(Cl)cc(Cl)cc12)[C@@H]1CCCCN1` (some centres unmarked) [Compound 27], the “inhibition of SHIP2” value [2] is given as 90% and the “inhibition of SHIP1 activity” value [3] is given as “completely inhibited”.

In the case of `CSc1ccc2c(c1)c(CCN)c(C)n2Cc1ccccc1Cl` [Compound 28], the “inhibition of SHIP2” value [2] is listed as 50% and the “inhibition of SHIP1 activity” value [3] is listed as “approximately 70%”.

For `CC[C@H]1CC[C@H]2[C@@H]3C[C@@H](O)[C@@]4(O)C[C@H](N)CC[C@]4(C)[C@H]3CC[C@]12C` [Compound K116], the pIC50 [1, 4] is given as 5.22 to 5.82.

In the case of `CC12CCCC1C1CCC3CC(N)CCC3(C)C1CC2` (centres unmarked) [Compound K118], the pIC50 ([1]; read-out: IC50 SHIP1; Table 1; cited from earlier work) is given as 4.80.

For `CC12CCCC1C1CCC3CC(N)C(N)CC3(C)C1CC2` (centres unmarked) [Compound K161], the pIC50 [1, 4] is given as 5.22.

In the case of `CC12CCCC1C1CCC3CC(N)CCC3(C)C1CC2` (centres unmarked) [Compound K185], the pIC50 [1, 4] is listed as 4.74.
